Experimental data taken from patent US8835124B2, “Method for treating cancer with agents that bind phosphorylated CDC27” (The Nemours Foundation, priority 2011, dated 2014).

Target: T1, Cdc27 association with p55Cdc20, APC2, APC8 (Homo sapiens, UniProt P30260)
T1 construct: endogenous in cells
Experiment: Co-immunoprecipitation with anti-Cdc27 antibodies
Type: cell-based
Details: DAOY, curcumin for 8 hours
Procedure: For immunoprecipitation, cells were lysed at 4° C. for 30 min in a buffer of 50 mM HEPES, pH 7.4, 150 mM NaCl 0.5% NP-40, 1 mM EDTA, 1 mM Na3VO4, 1 mM aprotinin, 1 mM leupeptin and 1 mM PMSF. Equal amounts of protein (from 0.5 to 2 mg) were incubated with Cdc27 antibody for 4 hours at 4° C. followed by protein G-Sepharose (GE Healthcare) for 2 hours, washed extensively, and analyzed by immunoblotting with indicated antibodies. For λ-phosphatase treatment, Cdc27 was immunoprecipitated as above except that phosphatase and protease inhibitors were omitted and then incubated with λ-[…]phosphatase according to the manufacturer's protocol (New England Biolabs, Ipswich, Mass.).
Proper APC/C function requires co-activator proteins such as Cdc20 or Cdh1 that may facilitate the recruitment of substrates. […] Cell lysates were subjected to immunoprecipitation with anti-Cdc27 antibodies. Immunoprecipitated proteins were immunoblotted with antibodies to APC2, APC8, p55 Cdc20 or Cdh1. Immunoblots of total cell lysates are shown to ensure equal loading. […] Under the experimental conditions used, Cdh1 was not found to be associating with Cdc27 (FIG. 8C).

Cdc27 association with the APC/C subunits APC2 and APC8: not affected | p55Cdc20 association with Cdc27 (compared to control cells): dramatically reduced
Compound: COc1cc(/C=C/C(=O)CC(=O)/C=C/c2ccc(O)c(OC)c2)ccc1O [Curcumin, (E,E)-1,7-bis(4-hydroxy-3-methoxyphenyl)-1,6-heptadiene-3,5-dion]
